target: PI3K γ (Homo sapiens, UniProt P48736); experiment: PI3 kinase phosphorylation assay (Biological Method 1), Ki γ; type: biochemical; details: Table 1, compounds of formula X
Procedure: The compounds of the invention were synthesized according to the examples provided above. PI3K inhibitory (IC50) values of the compounds were determined according to Biological Method 1.
Assay 1: Homogenous Solution Phase Assay
Compounds to be tested are dissolved in DMSO and directly distributed into 384-well flashplates at 1.25 μL per well. To start the reaction, 20 μL of 6 nM PI3 kinase are added into each well followed by 20 μL of 400 nM ATP containing a trace of radiolabeled ATP and 900 nM 1-alpha-phosphatidylinositol (PI). The plates are briefly centrifuged to remove any air gap. The reaction is performed for 15 minutes and then stopped by the addition of 20 μL of 100 mM EDTA. The stopped reaction is incubated overnight at RT to allow the lipid substrate to bind by hydrophobic interaction to the surface of the flashplate. The liquid in the wells is then washed away, and the labeled substrate is detected with scintillation counting.
Assay 2: One Step Solid Phase Assay
This method is similar to Assay 1 except that the lipid substrate (1-alpha-phosphatidylinositol (PI)) is first dissolved in a coating buffer and incubated on flashplate at room temperature overnight to allow the lipid substrate to bind by hydrophobic interaction to the surface of the flashplate. Unbound substrate is then washed away. On the day of assay, 20 μL of 6 nM PI3 kinase are added into each well followed by 20 μL of 400 nM ATP containing trace of radiolabeled ATP. Compounds are added together with enzyme and ATP to the lipid-coated plates. The plates are briefly centrifuged to remove any air gap. The reaction is performed for two to three hours. The reaction is stopped by addition of 20 μL of 100 mM EDTA or by immediate plate washing. Phosphorylated lipid substrate is detected by scintillation counting.
Assay 3: ATP Depletion Assay
Compounds to be tested are dissolved in DMSO and directly distributed into a black 384-well plate at 1.25 μL per well. To start the reaction, 25 μL of 10 nM PI3 kinase and 5 μg/mL 1-alpha-phosphatidylinositol (PI) are added into each well followed by 25 μL of 2 μM ATP. The reaction is performed until approx 50% of the ATP is depleted, and then stopped by the addition of 25 μL of KinaseGlo solution. The stopped reaction is incubated for 5 minutes and the remaining ATP is then detected via luminescence.

Chain of PI3K γ (P48736 whole entry): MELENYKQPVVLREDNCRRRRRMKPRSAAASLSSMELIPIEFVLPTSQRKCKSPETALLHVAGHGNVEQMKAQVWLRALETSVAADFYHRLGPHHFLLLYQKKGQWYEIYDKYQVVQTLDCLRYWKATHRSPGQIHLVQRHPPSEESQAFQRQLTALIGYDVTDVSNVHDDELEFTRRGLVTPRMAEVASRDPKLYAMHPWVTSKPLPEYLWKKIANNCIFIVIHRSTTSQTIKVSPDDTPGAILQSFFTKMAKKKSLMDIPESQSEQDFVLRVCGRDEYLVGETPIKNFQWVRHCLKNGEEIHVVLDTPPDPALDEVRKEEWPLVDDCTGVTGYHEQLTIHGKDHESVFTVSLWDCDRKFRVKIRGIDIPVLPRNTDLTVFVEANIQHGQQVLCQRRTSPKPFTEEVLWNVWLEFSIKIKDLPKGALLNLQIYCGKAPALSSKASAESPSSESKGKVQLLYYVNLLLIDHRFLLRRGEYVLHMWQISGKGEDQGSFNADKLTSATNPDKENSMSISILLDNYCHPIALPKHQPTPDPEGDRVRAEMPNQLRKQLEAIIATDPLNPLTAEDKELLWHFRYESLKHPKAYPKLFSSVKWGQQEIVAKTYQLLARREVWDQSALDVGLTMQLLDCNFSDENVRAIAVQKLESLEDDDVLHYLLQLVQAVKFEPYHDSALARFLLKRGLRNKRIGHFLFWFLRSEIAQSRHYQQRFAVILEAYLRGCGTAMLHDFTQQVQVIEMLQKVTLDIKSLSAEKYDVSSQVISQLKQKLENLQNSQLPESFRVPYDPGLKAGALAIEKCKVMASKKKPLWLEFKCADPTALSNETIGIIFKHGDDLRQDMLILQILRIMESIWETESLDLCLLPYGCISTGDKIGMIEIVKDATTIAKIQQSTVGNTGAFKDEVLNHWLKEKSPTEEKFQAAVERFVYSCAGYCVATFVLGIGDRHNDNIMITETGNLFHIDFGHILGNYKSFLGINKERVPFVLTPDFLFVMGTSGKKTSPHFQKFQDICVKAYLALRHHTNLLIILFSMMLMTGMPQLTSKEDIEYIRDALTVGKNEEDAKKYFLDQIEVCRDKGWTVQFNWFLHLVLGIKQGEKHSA

| Ki [µM] | Compound |
| --- | --- |
| 0.24 | CC(C)n1nnc(CCNC(=O)Nc2cn3cc(-c4cncc(-c5ccccc5)c4)ccc3n2)n1 [drawing 45] |
| 0.397 | CC(C)(C)NC(=O)CCNC(=O)Nc1cn2cc(-c3cncc(OC4CCOCC4)c3)ccc2n1 [drawing 49] |
| 0.57 | CCn1nnc(CCNC(=O)Nc2cn3cc(-c4cnc5ccccc5c4)ccc3n2)n1 [drawing 73] |
| 0.836 | CC(C)n1nnc(CCNC(=O)Nc2cn3cc(-c4cccc(F)c4)ccc3n2)n1 [drawing 69] |
| 0.007 | CCn1nnc(CCNC(=O)Nc2cn3cc(-c4cncc(C(F)(F)F)c4)ccc3n2)n1 [drawing 81] |
| 0.301 | COc1ccc(-c2ccc3nc(NC(=O)NCCc4nnn(C(C)C)n4)cn3c2)cn1 [drawing 51] |
| 0.735 | CCn1nnc(CCNC(=O)Nc2cn3cc(-c4cnn(Cc5ccccc5)c4)ccc3n2)n1 |
| 0.268 | COCCOCCOc1cncc(-c2ccc3nc(NC(=O)NCCc4nnn(C(C)C)n4)cn3c2)c1 [drawing 47] |
| 0.207 | CC(C)(C)NC(=O)CCNC(=O)Nc1cn2cc(-c3cncc(-c4ccccc4)c3)ccc2n1 [drawing 43] |
| 1.03 | COc1cccc(-c2ccc3nc(NC(=O)NCCc4nnn(C(C)C)n4)cn3c2)c1 [drawing 71] |
| 0.075 | COc1ccc(-c2ccc3nc(NC(=O)NCCc4nnn(CCF)n4)cn3c2)cn1 [drawing 53] |
| 0.911 | CCn1nnc(CCNC(=O)Nc2cn3cc(Br)ccc3n2)n1 [drawing 103] |
| 0.456 | CCn1nnc(CCNC(=O)Nc2cn3cc(-c4cnn(C)c4)ccc3n2)n1 [drawing 93] |
| 0.028 | O=C(NCCn1nnc(C2CC2)n1)Nc1cn2cc(-c3cncc(C(F)(F)F)c3)ccc2n1 [drawing 67] |
| 0.423 | CC(C)n1nnc(CCNC(=O)Nc2cn3cc(-c4ccccc4)ccc3n2)n1 [drawing 75] |

same assay, conditions: Table 2, compounds of formula X

| Ki [µM] | Compound |
| --- | --- |
| 0.026 | CCc1nnn(CCNC(=O)Nc2cn3cc(-c4cncc(C(F)(F)F)c4)ccc3n2)n1 [Example 1-25, 1-[2-(5-Ethyl-tetrazol-2-yl)-ethyl]-3-[6-(5-trifluoromethyl-pyridin-3-yl)-imidazo[1,2-a]pyridin-2-yl]urea] |
| 0.158 | CCn1nnc(CCNC(=O)Nc2cn3cc(-c4cncc5ccccc45)ccc3n2)n1 [Example 1-42, 1-[2-(2-Ethyl-2H-tetrazol-5-yl)-ethyl]-3-(6-isoquinolin-4-yl-imidazo[1,2-a]pyridin-2-yl)-urea] |
| 0.007 | CCn1nnc(CCNC(=O)Nc2cn3cc(-c4cncc(C(F)(F)F)c4)ccc3n2)n1 [Example 1-34, 1-[2-(2-Ethyl-2H-tetrazol-5-yl)-ethyl]-3-[6-(5-trifluoromethyl-pyridin-3-yl)-imidazo[1,2-a]pyridin-2-yl]-urea] |
| 0.911 | CCn1nnc(CCNC(=O)Nc2cn3cc(Br)ccc3n2)n1 [Example 1-45, 1-(6-Bromo-imidazo[1,2-a]pyridin-2-yl)-3-[2-(2-ethyl-2H-tetrazol-5-yl)-ethyl]-urea] |
| 0.24 | CC(C)n1nnc(CCNC(=O)Nc2cn3cc(-c4cncc(-c5ccccc5)c4)ccc3n2)n1 [Example 1-16, 1-[2-(2-Isopropyl-2H-tetrazol-5-yl)-ethyl]-3-[6-(5-phenyl-pyridin-3-yl)-imidazo[1,2-a]pyridin-2-yl]urea] |
| 0.135 | CC(C)n1nnc(CCNC(=O)Nc2cn3cc(-c4ccncc4)ccc3n2)n1 [Example 1-2, 1-[2-(2-Isopropyl-2H-tetrazol-5-yl)-ethyl]-3-(6-pyridin-4-yl-imidazo[1,2-a]pyridin-2-yl)-urea] |
| 0.301 | COc1ccc(-c2ccc3nc(NC(=O)NCCc4nnn(C(C)C)n4)cn3c2)cn1 [Example 1-19, 1-[2-(2-Isopropyl-2H-tetrazol-5-yl)-ethyl]-3-[6-(6-methoxy-pyridin-3-yl)-imidazo[1,2-a]pyridin-2-yl]-urea] |
| 1.03 | COc1cccc(-c2ccc3nc(NC(=O)NCCc4nnn(C(C)C)n4)cn3c2)c1 [Example 1-29, 1-[2-(2-Isopropyl-2H-tetrazol-5-yl)-ethyl]-3-[6-(3-methoxy-phenyl)-imidazo[1,2-a]pyridin-2-yl]-u] |
| 0.207 | CC(C)(C)NC(=O)CCNC(=O)Nc1cn2cc(-c3cncc(-c4ccccc4)c3)ccc2n1 [Example 1-15, N-tert-Butyl-3-{3-[6-(5-phenyl-pyridin-3-yl)-imidazo[1,2-a]pyridin-2-yl]ureido}-propionamide] |
| 0.008 | CC(=O)c1cncc(-c2ccc3nc(NC(=O)NCCc4nnn(C(C)C)n4)cn3c2)c1 [Example 1-43, 1-[6-(5-Acetyl-pyridin-3-yl)-imidazo[1,2-a]pyridin-2-yl]-3-[2-(2-isopropyl-2H-tetrazol-5-yl)-ethyl]urea] |
| 0.04 | CC(C)n1nnc(CCNC(=O)Nc2cn3cc(-c4cncc(C#N)c4)ccc3n2)n1 [Example 1-3, 1-[6-(5-Cyano-pyridin-3-yl)-imidazo[1,2-a]pyridin-2-yl]-3-[2-(2-isopropyl-2H-tetrazol-5-yl)-ethyl]-urea] |
| 0.57 | 1-[2-(2-Isopropyl-2H-tetrazol-5-yl)-ethyl]-3-(6-quinolin-3-yl-imidazo[1,2-a]pyridin-2-yl)-urea [Example 1-49] |
| 0.147 | CC(C)n1nnc(CCNC(=O)Nc2cn3cc(-c4cncc(OC5CCOCC5)c4)ccc3n2)n1 [Example 1-13, 1-[2-(2-Isopropyl-2H-tetrazol-5-yl)-ethyl]-3-{6-[5-(tetrahydro-pyran-4-yloxy)-pyridin-3-yl}-imidazo[1,2-a]pyridin-2-yl]-urea] |
| 0.012 | Cn1nnc(CCNC(=O)Nc2cn3cc(-c4cncc(C(F)(F)F)c4)ccc3n2)n1 [Example 1-38, 1-[2-(2-Methyl-2H-tetrazol-5-yl)-ethyl]-3-[6-(5-trifluoromethyl-pyridin-3-yl)-imidazo[1,2-a]pyridin-2-yl]-urea] |
| 0.836 | CC(C)n1nnc(CCNC(=O)Nc2cn3cc(-c4cccc(F)c4)ccc3n2)n1 [Example 1-28, 1-[6-(3-Fluoro-phenyl)-imidazo[1,2-a]pyridin-2-yl]-3-[2-(2-isopropyl-2H-tetrazol-5-yl)-ethyl]urea] |
| 0.018 | CC(C)n1nnc(CCNC(=O)Nc2cn3cc(-c4cncc(C(F)(F)F)c4)ccc3n2)n1 [Example 1-7, 1-[2-(2-Isopropyl-2H-tetrazol-5-yl)-ethyl]-3-[6-(5-trifluoromethyl-pyridin-3-yl)-imidazo[1,2-a]pyridin-2-yl]-urea] |

same assay, conditions: Table 3, compounds of formula XI

| Ki [µM] | Compound |
| --- | --- |
| 0.038 | COc1ccc(-c2ccc3nc(NC(=O)NCCN(C)C)sc3c2)cn1 [Example 2-3, 1-(2-Dimethylamino-ethyl)-3-[6-(6-methoxy-pyridin-3-yl)-benzothiazol-2-yl]urea] |
| 0.008 | O=C(NCCc1nnn(CCF)n1)Nc1nc2ccc(-c3cccnc3)cc2s1 [Example 2-1, 1-{2-[2-(2-Fluoro-ethyl)-2H-tetrazol-5-yl]-ethyl}-3-(6-pyridin-3-yl-benzothiazol-2-yl)-urea] |
| 0.242 | CCc1nnn(CCNC(=O)Nc2nc3ccc(-c4cncc(C(F)(F)F)c4)cc3s2)n1 [Example 2-11, 1-[2-(5-Ethyl-tetrazol-2-yl)-ethyl]-3-[6-(5-trifluoromethyl-pyridin-3-yl)-benzothiazol-2-yl]urea] |

same assay, conditions: Table 4

| Ki [µM] | Compound |
| --- | --- |
| 0.098 | CCn1nnc(CCNC(=O)Nc2cn3cc(-c4cncc(C#N)c4)ncc3n2)n1 [Example 3-5, 1-[6-(5-Cyano-pyridin-3-yl)-imidazo[1,2-a]pyrazin-2-yl]-3-[2-(2-ethyl-2H-tetrazol-5-yl)-ethyl]-urea] |
| 0.012 | CCn1nnc(CCNC(=O)Nc2cn3nc(-c4cncc(C(F)(F)F)c4)ccc3n2)n1 [Example 3-1, 1-[2-(2H-Ethyl-2H-tetrazole-5-yl)-ethyl]-3-[6-(5-trifluoromethyl-pyridin-3-yl)-imidazo[1,2-b]pyridazin-2-yl]-urea] |
| 0.248 | CCn1nnc(CCNC(=O)Nc2cn3nc(-c4cnccc4C)ccc3n2)n1 [Example 3-18, 1-[2-(2-Ethyl-2H-tetrazol-5-yl)-ethyl]-3-[6-(4-methyl-pyridin-3-yl)-imidazo[1,2-b]pyridazin-2-yl]-urea] |
| 0.031 | CCn1nnc(CCNC(=O)Nc2cn3nc(-c4cccnc4)ccc3n2)n1 [Example 3-3, 1-[6-(pyridin-3-yl)-imidazo[1,2-b]pyridazin-2-yl]-3-[2-(2-ethyl-2H-tetrazol-5-yl)-ethyl]-urea] |
| 0.027 | CCn1nnc(CCNC(=O)Nc2cn3cc(-c4cncc(C(F)(F)F)c4)ncc3n2)n1 [Example 3-4, 1-[2-(2-Ethyl-2H-tetrazol-5-yl)-ethyl]-3-[6-(5-trifluoromethyl-pyridin-3-yl)-imidazo[1,2-a]pyrazin-2-yl]-urea] |
| 0.082 | CCn1nnc(CCNC(=O)Nc2cn3cc(-c4cccnc4)ncc3n2)n1 [Example 3-6, 1-[2-(2-Ethyl-2H-tetrazol-5-yl)-ethyl]-3-(6-pyridin-3-yl-imidazo[1,2-a]pyrazin-2-yl)-urea] |

— patent publication US8053574B2, “Organic compounds” (Novartis AG, priority 2007, dated 2011)
